The text below walks through data of US6589953B2, “Indole derivatives as 5-HT1B and 5-HT1D agonists” (Pierre Fabre Medicament, priority 1997, dated 2003).

With `Cl.NCCc1c[nH]c2ccc(OCC(=O)N3CCN(c4ccc(-c5nn[nH]n5)cc4)CC3)cc12`, the melting point (in general, the temperature of the solid-liquid transition) lay in the range of 225 to 227 °C.

The molecule `Cc1ccccc1-c1nnc(-c2ccc(N3CCN(C(=O)COc4ccc5[nH]cc(CCN)c5c4)CC3)cc2)o1.O=C(O)/C=C/C(=O)O` came in with a melting point of 123 °C.

`NCCc1c[nH]c2ccc(OCC(=O)N3CCN(c4ccc(-c5ccncc5)cc4)CC3)cc12.O=C(O)/C=C/C(=O)O`: the melting point was 176 °C.

As for `Cl.Cl.NCCc1c[nH]c2ccc(OCC(=O)N3CCN(c4ccc(-c5ncco5)cc4)CC3)cc12`, the melting point is 64 to 66 °C (dec.).

Take `NCCc1c[nH]c2ccc(OCC(=O)N3CCN(c4ccc(-c5nnc(-c6ccccc6)o5)cc4)CC3)cc12.O=C(O)/C=C/C(=O)O`: the melting point turned out to be 170 °C.

Turning to `Cc1ccc(-c2nnc(-c3ccc(N4CCN(C(=O)COc5ccc6[nH]cc(CCN)c6c5)CC4)cc3)o2)cc1.O=C(O)/C=C/C(=O)O`, the melting point was 135 °C.

`NCCc1c[nH]c2ccc(OCC(=O)N3CCN(c4ccc(-c5nc6ccccc6s5)cc4)CC3)cc12.O=C(O)/C=C/C(=O)O` gave a melting point of 156 to 160 °C.

Take `NCCc1c[nH]c2ccc(OCC(=O)N3CCN(c4ccc(C5=NCCO5)cc4)CC3)cc12.O=C(O)/C=C/C(=O)O`: the melting point was found to be 170 °C.

Turning to `NCCc1c[nH]c2ccc(OCC(=O)N3CCN(c4ccc(-c5cccs5)cc4)CC3)cc12.O=C(O)/C=C/C(=O)O`, the melting point was in the range of 154 to 156 °C.
